Assays:
Test in all cases: relative viability (nuclei count vs DMSO), 5 days (fraction); higher = more cells survive
[1] = compound: CCn1c(-c2nonc2N)nc2c(C#CC(C)(C)O)ncc(OC[C@H]3CCCNC3)c21 + CS(=O)(=O)N1CCN(Cc2cc3nc(-c4cccc5[nH]ncc45)nc(N4CCOCC4)c3s2)CC1 [Pictilisib] (partner 1 µM)
In short: (§1)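 Each reported value is a median over duplicate plates. It expresses relative viability: treated-well nuclei count divided by vehicle-well nuclei count. Lung cancer cell lines in 1536-well plates were dosed by pin tool a day after seeding, alone with one drug or with a fixed anchor-drug dose plus five library-drug doses (not always all listed) in √10 steps, and nuclei were counted after 5 days.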

BAM7 + Olaparib = compound: CCOC1=CC=CC=C1N=NC2=C(NN(C2=O)C3=NC(=CS3)C4=CC=CC=C4)C [BAM7] + O=C(c1cc(Cc2n[nH]c(=O)c3ccccc23)ccc1F)N1CCN(C(=O)C2CC2)CC1 [Olaparib] (partner 8 µM)
In short: as §1

BAM7 + Luminespib = compound: CCOC1=CC=CC=C1N=NC2=C(NN(C2=O)C3=NC(=CS3)C4=CC=CC=C4)C [BAM7] + CCNC(=O)c1noc(-c2cc(C(C)C)c(O)cc2O)c1-c1ccc(CN2CCOCC2)cc1 [Luminespib] (partner 0.01 µM)
In short: as §1

[2] = compound: CCn1c(-c2nonc2N)nc2c(C#CC(C)(C)O)ncc(OC[C@H]3CCCNC3)c21 + NC(=O)Nc1cc(-c2cccc(F)c2)sc1C(=O)N[C@H]1CCCNC1 [AZD7762] (partner 0.2 µM)
In short: as §1

| Cell Line | relative viability ([1]; first compound 0.01 µM) | relative viability ([1]; first compound 0.03162 µM) | relative viability ([1]; first compound 0.1 µM) | relative viability ([1]; first compound 0.3162 µM) | relative viability ([1]; first compound 1 µM) | relative viability (BAM7 + Olaparib; first compound 0.5 µM) | relative viability (BAM7 + Olaparib; first compound 5 µM) | relative viability (BAM7 + Olaparib; first compound 15.81 µM) | relative viability (BAM7 + Olaparib; first compound 50 µM) | relative viability (BAM7 + Luminespib; first compound 0.5 µM) | relative viability (BAM7 + Luminespib; first compound 5 µM) | relative viability (BAM7 + Luminespib; first compound 15.81 µM) | relative viability (BAM7 + Luminespib; first compound 50 µM) | relative viability ([2]; first compound 0.01 µM) | relative viability ([2]; first compound 0.03162 µM) | relative viability ([2]; first compound 0.1 µM) | relative viability ([2]; first compound 0.3162 µM) | relative viability ([2]; first compound 1 µM) |
| --- | --- | --- | --- | --- | --- | --- | --- | --- | --- | --- | --- | --- | --- | --- | --- | --- | --- | --- |
| NCI-H1755 | 0.426 | 0.445 | 0.41 | 0.408 | 0.382 | 0.858 | 0.939 | 0.858 | 0.899 | 0.431 | 0.495 | 0.525 | 0.524 | 0.501 | 0.418 | 0.382 | 0.406 | 0.425 |
| HCC-78 | 0.191 | 0.217 | 0.194 | 0.187 | 0.177 | 1.02 | 0.759 | 0.631 | 0.815 |  |  |  |  | 0.627 | 0.532 | 0.579 | 0.614 | 0.445 |
| IA-LM | 0.355 | 0.316 | 0.276 | 0.26 | 0.168 | 0.912 | 0.794 | 0.797 | 0.775 |  |  |  |  |  |  |  |  |  |
| NCI-H322M | 0.448 | 0.483 | 0.341 | 0.476 | 0.413 | 0.762 | 0.714 | 0.654 | 0.641 | 0.876 | 0.966 | 0.903 | 0.93 | 0.591 | 0.661 | 0.562 | 0.516 | 0.625 |
| NCI-H3122 | 0.606 | 0.612 | 0.634 | 0.598 | 0.55 | 0.428 | 0.579 | 0.416 | 0.53 | 0.0898 | 0.13 | 0.0656 | 0.0782 | 1.01 | 1.03 | 0.997 | 0.975 | 1.04 |
| COR-L23 | 0.794 | 0.759 | 0.727 | 0.705 | 0.674 | 0.379 | 0.343 | 0.332 | 0.346 | 0.635 | 0.661 | 0.601 | 0.647 |  |  |  |  |  |
| NCI-H2087 | 0.823 | 0.843 | 0.805 | 0.891 | 0.894 | 0.683 | 0.685 | 0.559 | 0.456 | 0.183 | 0.216 | 0.18 | 0.172 | 1.31 |  | 1.13 | 1.35 | 1.42 |
| LC-2-ad | 0.303 | 0.507 | 0.505 | 0.385 | 0.397 | 0.676 | 0.633 | 0.634 | 0.646 | 1.06 | 1.26 | 0.951 | 1.03 | 0.86 | 0.874 | 0.885 | 0.839 | 0.867 |
| NCI-H2023 | 0.214 | 0.269 | 0.207 | 0.196 | 0.236 | 0.475 | 0.45 | 0.363 | 0.387 | 0.939 | 0.613 | 0.586 | 0.721 |  |  |  |  |  |
| COR-L 105 | 0.428 | 0.345 | 0.333 | 0.549 | 0.379 | 0.806 | 0.746 | 0.665 | 0.707 | 0.668 | 0.892 | 0.706 | 0.734 |  |  |  |  |  |
| NCI-H520 | 0.332 | 0.345 | 0.249 | 0.241 | 0.272 | 0.401 | 0.432 | 0.342 | 0.344 | 0.207 | 0.236 | 0.243 | 0.222 |  |  |  |  |  |
| SK-LU-1 | 0.64 | 0.715 | 0.498 | 0.575 | 0.617 | 0.463 | 0.542 | 0.444 | 0.55 | 0.217 | 0.18 | 0.2 | 0.186 |  |  |  |  |  |
| NCI-H522 |  |  |  |  |  | 0.725 | 0.585 | 0.61 | 0.643 | 1.2 | 1.2 | 1.11 | 0.993 | 0.726 | 0.763 | 0.838 | 0.686 | 0.772 |
| NCI-H1299 | 0.817 | 0.954 | 0.773 | 0.76 | 0.753 | 0.961 | 1.02 | 0.981 | 0.923 |  |  |  |  |  |  |  |  |  |
| NCI-H1650 | 0.531 | 0.602 | 0.441 | 0.586 | 0.562 | 0.734 | 0.729 | 0.737 | 0.737 | 0.171 | 0.191 | 0.19 | 0.2 |  |  |  |  |  |
| NCI-H2009 | 0.89 | 0.855 | 0.745 | 0.798 | 0.752 | 0.716 | 0.727 | 0.662 | 0.663 | 1.05 | 1.06 | 1.04 | 0.979 |  |  |  |  |  |
| NCI-H1648 |  |  |  |  |  | 0.772 | 0.799 | 0.322 | 0.558 |  |  |  |  | 0.601 | 0.728 | 0.615 | 0.686 | 0.673 |
| SK-MES-1 | 0.399 | 0.351 | 0.363 | 0.339 | 0.314 | 0.82 | 0.703 | 0.613 | 0.704 | 0.877 | 0.805 | 0.621 | 0.798 |  |  |  |  |  |
| NCI-H2342 |  |  |  |  |  | 0.49 | 0.46 | 0.347 | 0.341 | 0.691 | 0.726 | 0.768 | 0.735 | 0.444 | 0.482 | 0.498 | 0.534 | 0.455 |
| SW 900 |  |  |  |  |  |  | 0.847 |  | 0.786 | 0.19 | 0.208 | 0.158 | 0.185 | 0.656 | 0.659 | 0.712 | 0.575 | 0.56 |
| HCC-366 | 0.235 | 0.214 | 0.12 | 0.131 | 0.218 | 0.328 | 0.263 | 0.226 | 0.307 |  |  |  |  | 0.332 | 0.239 | 0.287 | 0.273 | 0.241 |
| A549 | 0.505 | 0.536 | 0.471 | 0.334 | 0.361 | 0.323 | 0.319 | 0.432 | 0.476 |  |  |  |  |  |  |  |  |  |
| NCI-H661 | 0.368 | 0.564 | 0.299 | 0.385 | 0.401 | 0.796 | 0.855 | 0.716 | 0.725 | 0.916 | 0.938 | 0.96 | 0.921 |  |  |  |  |  |
| NCI-H1563 | 0.689 | 0.618 | 0.686 | 0.615 | 0.633 |  |  |  |  | 0.508 | 0.518 | 0.562 | 0.564 |  |  |  |  |  |
